According to article PMC9747239, “State-selective modulation of heterotrimeric Gαs signaling with macrocyclic peptides” (Cell, 2022):
Where a SMILES comes first, the peptide text is derived from it. Bridges are numbered along the chain shown (N, C = ends). [ ]: non-standard residue; d: D form.

Experiments:
Gαs (short isoform) = molecular target: T1, Gαs (short isoform) (Homo sapiens, UniProt P63092); assay: Reconstituted adenylyl cyclase (AC) activity assay, Gαs/GNP-mediated AC activation; assay type: biochemical; conditions: Gαs/GNP 125 nM, read-out: IC50, inhibition of Gαs-mediated AC activation
T1 construct: vector His tag with thrombin/Drice site (removed); made in house; host or cells: E. coli BL21(DE3)
Procedure: Cyclic peptides (4 mM stock in DMSO) were diluted to 4X stocks with a series of concentrations in reaction buffer (1x PBS 7.4, 0.1% BSA). Gαs at a concentration of 8.5 mg/mL (about 190 μM) in 20 mM HEPES 8.0, 150 mM NaCl, 5 mM MgCl2, 1 mM EDTA-Na 8.0 was diluted to 0.5 μM in dilution buffer (1x PBS 7.4, 0.1% BSA, 1 mM EDTA-Na 8.0, 2 mM DTT, 0.1mM MgCl2) plus 1mM GNP (For the GDP-bound R201 mutants, GDP was used in the nucleotide exchange experiments). After incubation at room temperature for 1 h to allow nucleotide exchange, 2.5 μL of 4x Gαs dilution was mixed with 1 μL MgCl2 stock (20 mM MgCl2, 1x PBS 7.4, 0.1% BSA) in an OptiPlate-384, White Opaque 384-well Microplate to lock Gαs in GNP-bound state. 2 μL of 5x AC stock (2 μM VC1, 2 nM IIC2, 150 μM FSK, 1x PBS 7.4, 0.1% BSA) was added, followed by addition of 2.5 μL 4X cyclic peptides stock. […] The cAMP concentrations were measured by the LANCE Ultra cAMP kit. […]
cAMP concentrations measurement by the LANCE Ultra cAMP kit: A cAMP standard curve was generated in the same plate using the 50 μM cAMP standard in the kit. […] 10 μL of each diluted sample was mixed with 5 μL of 4X Eu-cAMP tracer and 5 μL of 4X ULight-anti-cAMP in a white, opaque Optiplate-384 microplate, incubated for 1 h at room temperature, and the time-resolved fluorescence resonance energy transfer (TR-FRET) signals were read on a Spark 20M plate reader. […]

Plasma stability assay = assay type: in vitro ADME; conditions: both sexes, pooled human plasma, 37 °C, values represent 95% confidence intervals, read-out: Half-life (hour), plasma stability
Procedure: (§1) These assays were conducted by Pharmaron Beijing CO., Ltd. Cyclic peptides working solutions were prepared at 10 μM in DMEM with 10% FBS (Avantor, Cat# 76,294–180) or human plasma (Pooled, Male & Female, BioIVT, Cat# HMN666664). The assays were performed in duplicate. Vials were incubated at 37 °C at 60 rpm in a water bath and taken at designated time points including 0, 480, 1080 and 1440 min. For each time point, the initiation of the reaction was staggered so all the time points were terminated with cold acetonitrile containing internal standards (IS, 100 nM alprazolam, 200 nM labetalol, 200 nM Imipramine and 2 μM ketoplofen) at the same time. Samples were vortexed then centrifuged at 4°C to remove proteins. The supernatants from centrifugation were diluted by ultra-pure H2O and used for LC-MS/MS analysis. All calculations were carried out using GraphPad Prism. Remaining percentages of parent compounds at each time point were estimated by determining the peak area ratios from extractedion chromatograms.

Gαs/GNP = molecular target: T2, Gαs/GNP (Homo sapiens, UniProt P63092); assay: Bio-layer interferometry (BLI), GNP-bound Gαs; conditions: immobilized Gαs/GNP, read-out: KD, binding to Gαs/GNP
T2 construct: hexahistidine (N, cleaved yes); made in house; host or cells: E. coli BL21(DE3)
Procedure: (§2) BLI experiments were performed using an OctetRED384 instrument from ForteBio. All experiments were performed at 25°C using BLI buffer (10 mM HEPES pH 7.4, 150 mM NaCl, 1mM MgCl2, 0.05% Tween 20, 0.1% DMSO, 0.2 mM GNP or GDP). Cyclic peptides or Gα proteins were diluted to a series of concentrations (Final concentrations were indicated in Figures) in BLI buffer plus 10 μM Biotin. Assays were conducted in Greiner 384well, black, flat bottom polypropylene plates containing the protein solutions, BLI buffer plus 10 μM Biotin for dissociation, and serial dilutions of cyclic peptides to be tested.
(§3) Biotinylated proteins or cyclic peptides were immobilized on Streptavidin biosensors by dipping sensors into plate wells containing protein solutions at a concentration of 50–150 nM. Protein loading is around 2–3 nm. Cyclic peptide loading is around 0.2–0.3 nm. Sensors loaded with proteins or cyclic peptides were moved and dipped into wells with BLI buffer plus 10 μM Biotin to block unlabeled Streptavidin. […]
(§4) Raw kinetic data collected were processed with the Data Analysis software provided by the manufacturer using single reference subtraction in which buffer-only reference was subtracted (For GN13 analysis). […] The resulting data were analyzed based on a 1:1 binding model from which kon and koff values were obtained and then Kd values were calculated.

[1] = Chemical stability assay in DMEM with 10% FBS; assay type: in vitro ADME; conditions: bovine, DMEM with 10% FBS (fetal bovine serum), 37 °C, values represent 95% confidence intervals, read-out: Half-life (hour), chemical stability in DMEM with 10% FBS
Procedure: as §1

Gαs/GDP and Gβγ(C68S) = molecular target: T3, Gαs/GDP and Gβγ(C68S) (Homo sapiens, UniProt P63092); assay: FRET based Gαs/Gβγ interaction assay; assay type: binding
T3 construct: hexahistidine (N, cleaved yes); made in house; host or cells: E. coli BL21(DE3) (Gαs); Sf9 insect cells (Gβ1γ2)

Gαs/GDP = molecular target: T4, Gαs/GDP (Homo sapiens, UniProt P63092); assay: Bio-layer interferometry (BLI), GDP-bound Gαs; conditions: read-out: KD, binding to Gαs/GDP
T4 construct: hexahistidine (N, cleaved yes); made in house; host or cells: E. coli BL21(DE3)
Procedure: as §2, §3, §4

[2] = molecular target: T5, Adenylyl cyclase (C1 domain of ADCY5, VC1, with C2 domain of ADCY2, IIC2) (human, UniProt O95622 442-658; Q08462 871-1082); assay: AlphaScreen or HTRF; TR-FRET competition: biotinylated GNP-bound Gαs (100 nM) with streptavidin XL665, AC (VC1 20 nM, IIC2 40 nM, forskolin 100 uM) with anti-6His-Tb cryptate, GN13 0-40,000 nM, 1 h at room temperature, 1X PBS 7.4, 0.1% BSA, 2 mM DTT, 2 mM MgCl2; conditions: both partners purified
T5 construct: C1 domain (VC1) of adenylyl cyclase V; C2 domain (IIC2) of human adenylyl cyclase II, residues 871-1082; Forskolin (100 uM) was present in the assay; also called AC; VC1/IIC2; source: E. coli BL21(DE3), purified (TALON, gel filtration); VC1 and IIC2 mixed with forskolin as one AC stock

[3] = molecular target: T6, Adenylyl cyclase (AC): C1 domain of ADCY5 (VC1) with C2 domain of ADCY2 (IIC2), with forskolin (human, UniProt O95622 442-658; Q08462 871-1082); assay: AlphaScreen or HTRF; TR-FRET Gαs/adenylyl cyclase interaction assay: 100 nM GNP-bound biotinylated Gαs with streptavidin XL665, 20 nM VC1, 40 nM IIC2, 100 μM forskolin with anti-6His-Tb cryptate, cyclic peptide series; 1X PBS 7.4, 0.1% BSA, 2 mM DTT, 2 mM MgCl2, 1 h at room temperature; conditions: both partners purified
T6 construct: C1 domain of human ADCY5 (adenylyl cyclase V), residues 442-658; C2 domain of human ADCY2 (adenylyl cyclase II), residues 871-1082; In the TR-FRET assay AC was detected with anti-6His-Tb cryptate; source: E. coli BL21(DE3), each domain purified (TALON, gel filtration), mixed as an AC stock with forskolin

Question: Which results are given for `CC[C@H](C)[C@@H]1NC(=O)[C@H](C)NC(=O)[C@H](Cc2ccc(O)cc2)NC(=O)[C@H](C(C)C)NC(=O)[C@H](CO)NC(=O)[C@H](CCC(=O)O)NC(=O)[C@H](Cc2ccccc2)NC(=O)[C@@H](Cc2ccc(O)cc2)NC(=O)CSC[C@@H](C(=O)NCC(N)=O)NC(=O)[C@H](CC(C)C)NC(=O)[C@H]([C@@H](C)O)NC(=O)CNC(=O)[C@H](Cc2c[nH]c3ccccc23)NC1=O` [GN13] ({CH2CO}-[dY]FESVYAIWGTLCG-NH2; thioether N-13)?
Answer: IC50 (Gαs (short isoform)): 4150 ± 1130 nM; half-life at 10 μM (Plasma stability assay): > 82 h; Kd (Gαs/GNP): 190 ± 20 nM; half-life at 10 μM [1]: > 76 h

Question: What does the source list for `CC[C@H](C)[C@@H]1NC(=O)[C@H](CC(C)C)NC(=O)[C@@H](Cc2ccc(O)cc2)NC(=O)CSC[C@@H](C(=O)NCC(N)=O)NC(=O)[C@@H]2CCCN2C(=O)[C@H](CC(C)C)NC(=O)[C@H](CC(N)=O)NC(=O)[C@H](CC(C)C)NC(=O)[C@H](C)NC(=O)[C@H](Cc2c[nH]c3ccccc23)NC(=O)[C@H](CCC(N)=O)NC(=O)[C@H](CCCNC(=N)N)NC(=O)[C@H](Cc2ccccc2)NC(=O)[C@H]([C@@H](C)O)NC1=O` [cpGD20] ({CH2CO}-[dY]LITFRQWALNLPCG-NH2; thioether N-14)?
Answer: IC50 (Gαs/GDP and Gβγ(C68S)): 14 ± 0.6 nM; half-life at 10 μM (Plasma stability assay): 7.16 to 12.7 h; Kd (Gαs/GDP): 14.5 ± 0.4 nM; half-life at 10 μM [1]: 37.4 to 50.3 h

B1: Biotinylated Avi-Gαs (WT), residues 7-380 of the short isoform of human Gαs (natural protein)
chain: SKTEDQRNEEKAQREANKKIEKQLQKDKQVYRATHRLLLLGAGESGKSTIVKQMRILHVNGFNGDSEKATKVQDIKNNLKEAIETIVAAMSNLVPPVELANPENQFRVDYILSVMNVPDFDFPPEFYEHAKALWEDEGVRACYERSNEYQLIDCAQYFLDKIDVIKQADYVPSDQDLLRCRVLTSGIFETKFQVDKVNFHMFDVGGQRDERRKWIQCFNDVTAIIFVVASSSYNMVIREDNQTNRLQEALNLFKSIWNNRWLRTISVILFLNKQDLLAEKVLAGKSKIEDYFPEFARYTTPEDATPEPGEDPRVTRAKYFIRDEFLRISTASGDGRHYCYPHFTCAVDTENIRRVFNDCRDIIQRMHLRQYELL
modifications: biotin on the Avi tag
notes: Gαs (GNAS), human, short isoform (380 residues), residues 7-380; Loaded with GppNHp (GNP) or GDP as the assay says; also called Biotinylated Gαs/GNP; Biotinylated Gαs/GDP; source: E. coli BL21(DE3), purified (TALON, Source-15Q, gel filtration), biotinylated with BirA; not shown: Avi tag, N-terminal, kept; His6, N-terminal, cleaved
Question: Does B1 bind [2]?
Answer: Result: binds

B2: Biotinylated Avi-Gαs (WT), residues 7-380 of the short isoform of human Gαs (natural protein)
chain: SKTEDQRNEEKAQREANKKIEKQLQKDKQVYRATHRLLLLGAGESGKSTIVKQMRILHVNGFNGDSEKATKVQDIKNNLKEAIETIVAAMSNLVPPVELANPENQFRVDYILSVMNVPDFDFPPEFYEHAKALWEDEGVRACYERSNEYQLIDCAQYFLDKIDVIKQADYVPSDQDLLRCRVLTSGIFETKFQVDKVNFHMFDVGGQRDERRKWIQCFNDVTAIIFVVASSSYNMVIREDNQTNRLQEALNLFKSIWNNRWLRTISVILFLNKQDLLAEKVLAGKSKIEDYFPEFARYTTPEDATPEPGEDPRVTRAKYFIRDEFLRISTASGDGRHYCYPHFTCAVDTENIRRVFNDCRDIIQRMHLRQYELL
modifications: biotin on the Avi tag (BirA)
notes: human Gαs (GNAS), short isoform, residues 7-380; Loaded with GNP (GppNHp) or GDP; the nucleotide state is told by the assay; also called Gαs/GNP; Gαs/GDP; source: E. coli BL21(DE3), purified (TALON, Drice cleavage, BirA biotinylation, Source-15Q, gel filtration); not shown: Avi tag, N-terminal, kept; His6, N-terminal, cleaved
Question: Does B2 bind [3]?
Answer: Result: binds
